For assay [1] the following is noted: 6% solution applied over the enamel; cited from earlier work.
A short description of assay [2]: citric acid solution applied over the enamel. Type of assay: in vivo. As to conditions: 6% citric acid in the improved solution, over the teeth enamel. The text has this: Citric acid as incorporated in the present disclosure is an irrigating substance classified as a chelating agent which, due to its low pH, reacts with the metallic ions in the hydroxyapatite crystals in order to produce a metallic chelating agent which reacts with the chelating agent's terminal groups when removing calcium ions of the dentine, forming a ring. The dentine softens changing the solubility and permeability aspects of the tissue, especially the peritubular dentine, rich in hydroxyapatite, increasing the diameter of the exposed dental tubes. These chelating agent properties also provide a great affinity as thus used due to ferrous alkali characteristics of the dental structure. Also, this chelating agent is naturally found inside the body, thus making it biologically more acceptable than other acids. Citric acid is effective in altering the hydroxyapatite solubility; it has been used in several concentrations, from 0.6 up to 50% by weight. Its effect is very fast and it only requires five seconds to apply a 6% solution over the enamel to remove the undesired dental covering.
This action is favorably strengthened when citric acid (C6O7H8) is included in the composition at the approximate 6% (weight percent) level. (Tables 1 and 2). […]

We go through one molecule from patent publication US8557225B2, “Solution and method for cleaning tooth enamel” (priority 2008, dated 2013).

In the case of `O=C(O)CC(O)(CC(=O)O)C(=O)O` [Citric acid, citric acid], the “time required to remove the undesired dental covering” value in assay [1] is on record as “five seconds”. In assay [2], the “time required after applying for dissolving the organic matter” value is given as “thirty seconds”.
